According to patent publication US5585234A, “Treatment of infertile sperm in vitro with thymosin α1 to enhance penetration of mammalian ova” (The George Washington University Medical Center, priority 1994, dated 1996):
Ends that are not written are not given here.

Experiments:
Assay type in all cases: cell-based
human sperm [1] = test: Sperm motion analysis (computerized semen analyzer); details: for Effect on motility characteristics (velocity, ALH, beat frequency) / Effect on the percentage of motile sperm cells: peptide 0.5 micrograms per hundred microliters; for ALH (amplitude of lateral head displacement) (Mean ± S.D.) / Beat Frequency (Mean ± S.D.) / Linearity (Mean ± S.D.) / Percent Motility / Velocity (Mean ± S.D.): thymosins 0.5 μg/100 μl, 5 to 6 hours
Description: After incubation with thymosin peptides or their antibodies for 5 to 6 hours as described above, an aliquot (7 microliters) of the sperm suspension was placed into a Makler chamber (Sefi Medical Instruments, Israel) and the sperm motion characteristics measured using a computerized semen analyzer (Cell Soft Cryo Resources, N.Y.). The parameter settings were 30 frames analyzed at an image frequency of 30 Hz, 3 frames minimum sampling for motility, 15 frames minimum sampling for both velocity and amplitude of the lateral head movement ("ALH") measurements, 10 micrometers per second threshold velocity, minimum linearity of 2.5 for ALH measurements and a cell size range of 4-40 pixels with a magnification calibration of 0.688 micrometers per pixel.

human sperm [2] = test: Assessment of acrosomal status (triple stain) of human sperm; details: for Effect on capacitation and acrosome reaction of human sperm cells: 0.5 micrograms/microliter, 5-6 hours, with or without ionophore; for Acrosome reacted sperm (%) (Mean ± SD): thymosins 0.5 μg/100 μl
Description: Motile sperm were collected from fertile men by the swim up procedure as set forth in Naz et al., referenced above. Good quality sperm samples, i.e., (5×10^6 motile sperm per milliliter), greater than 75% motility, +3 to +4 forward progression on a scale of 0 to +5 were incubated with Tα1 or Tβ4 or anti-Tα1 antibodies or anti-Tβ4 antibodies. The controls were treated with the same amount of normal rabbit serum, anti-KLH antibodies, anti-HGP 30 antibodies or PBS-BSA as previously described. After incubation, the spermatozoa were centrifuged, washed in PBS and divided into two aliquots. One aliquot was induced to acrosome react with calcium ionophore (Calcium ionophore A23187 (Sigma)) and incubated with sperm suspension for one hour. The other aliquot was allowed to spontaneously acrosome react without treating with calcium ionophore. Calcium ionophore treatment was carried out to induce acrosome reaction of the capacitated sperm. The acrosomal status was assessed using the triple stain procedure described by Jager et al., Arch. Androl., 12:53-58 (1984). The sperm were washed twice in PBS and then incubated at 37° C. for fifteen minutes with 2% Trypan blue (Sigma 1:1 v/v) in PBS. After incubation, the sperm were washed twice, fixed in three percent glutaraldehyde, 0.1M cacodylate buffer for sixty minutes and then twice washed again in PBS. A drop of this suspension was placed on a glass slide and allowed to air dry overnight. The dried slide was stained with 0.8% Bismark Brown (Sigma) in deionized water (pH 1.8 with 2N HCl), rinsed in deionized water and stained for 45 minutes at room temperature in 0.8% Rose Bengal (Sigma) in 0.1M cacodylate buffer at pH 6.0. The slides were again washed in deionized water, dehydrated in an alcohol series, cleared in xylene and mounted with permount and a coverslip. A total of 200-500 sperm per sample were evaluated and recorded as either alive or dead. The alive sperm were further evaluated as acrosome-intact or acrosome-non-intact (reacted) sperm. The experiments were repeated 3-5 times using sperm of at least three different fertile donors.

human sperm [3] = test: Assessment of acrosin distribution (BAPNA acrosin activity in cells and supernatant); details: for Effect on acrosin distribution vs PBS-BSA treated sperm: peptide 0.5 micrograms/100 microliters, with or without ionophore; for Acrosin activity, cells (Mean ± SD) / Acrosin activity, supernatant (Mean ± SD): thymosins 0.5 μg/100 μl
Description: After incubation with the thymosin peptides or the anti-thymosin antibodies or control antibodies or PBS-BSA and with or without treating with calcium ionophore A23187 for one hour as described above, the sperm cells were centrifuged and the acrosin activity determined in the supernatant and cells by the method of Kennedy et al., J. Androl., 10:21-27 (1989). Ninety microliters of the supernatant or the pelleted sperm cells suspended in 90 microliters of PBS were mixed with one milliliter of the reaction mixture. The reaction mixture comprises one milligram per milliliter of N-benzoyl-dl-arginine-P-nitraniline (BAPNA) hydrochloride in 0.055M HEPES buffer, 0.055M NaCl, 10% v/v (dimethylsulfoxide), 0.1% v/v TRITON X-100 (t-Octylphenoxypolyethoxyethanol). The solution then was incubated for three hours at room temperature. The reaction was stopped by the addition of 100 microliters of 0.5M benzamidine and the absorbance measured at 405 nanometers using a Beckman spectrophotometer. Acrosin activity was expressed as μIU/10^6 spermatozoa. The daily variability of the assay was normalized using a cryopreserved partially-purified human acrosin extract. The preparation of such extracts is taught by Naz et al., J. Cell Sci., 102:487-494 (1992).

human sperm [4] = test: Human sperm penetration assay of zona-free hamster oocytes (SPA); details: for Ova penetrated, % of control (mean ± SD): 5-6 hours, sperm of fertile men
Description: Human sperm penetration assay of zona-free-hamster oocytes (SPA) was performed as described in Naz et al., J. Cell Sci., 102:487-494 (1992). Superovulation was induced in adult female golden hamsters by intraperitoneal injections of 30 IU eCG (pregnant mare serum gonadotropin)(Sigma Chemical Co., St. Louis, Mo.) on day 1 of the cycle. After 55-72 hours, 20 IU hCG (human chorionic gonadotropin) (Sigma) were administered intraperitoneally. 15-17 hours later the animals were sacrificed and the mature unfertilized ova were collected from the oviducts. The ova were separated from the surrounding cumulus cells by incubation with 0.2% hyaluronidase in Biggers, Witten and Wittingham (BWW) medium and from the zonae pellucida by treatment with 0.1% pancreatic trypsin in BWW. The zona-free ova were twice washed in BWW and placed in the center of a tissue culture dish.
Semen from a fertile person was liquified for 15-30 minutes at 37° C. and the swim-up sperm population was collected. Collection techniques are described in Naz et al., J. Cell Sci., 99:157-165 (1991). The sperm cells from the swim-up were washed with BWW supplemented with 1% BSA (Sigma Chemical Co.) adjusted to 5-10×10^6 motile sperm per milliliter and then allowed to incubate for 5-6 hours at 37° C. ([…]) or polyclonal antisera elicited in response to those immunogens (10-20 microliters of antiserum/100 microliters of sperm suspension) or the same amount of control antibodies (normal rabbit serum, anti-KLH antibodies or anti-HGP-30 antibodies) or the equivalent volume of PBS containing 0.5% BSA (PBS/BSA). After incubation the sperm were washed to remove the unreacted thymosin or anti-thymosin antibody and co-incubated with the zona-denuded hamster oocytes (30-50 eggs/treatment in each assay) for three to four hours. The oocytes were removed, thoroughly washed, fixed with 3% […] and stained with acetocarmine solution. Sperm penetration was determined by the presence of a swollen spermhead with a discernable tail in the cytoplasm of the ovum. Motility of sperm before and after incubation with ova was recorded. The assays were repeated at least three to eight times using different fertile donors and each sample tested with at least 82-480 oocytes.
The percentage of ova penetrated was calculated according to the following formula; [formula]

[5] = peptide 0.1 μg/100 μl sperm suspension
[6] = peptide 0.5 μg/100 μl sperm suspension
[7] = peptide 2.0 μg/100 μl sperm suspension
[8] = peptide 10.0 μg/100 μl sperm suspension

| Substance | Effect on motility characteristics (velocity, ALH, beat frequency) (human sperm [1]) | Effect on the percentage of motile sperm cells (human sperm [1]) | ALH (amplitude of lateral head displacement) (Mean ± S.D.) (human sperm [1]) | Beat Frequency (Mean ± S.D.) (human sperm [1]) | Linearity (Mean ± S.D.) (human sperm [1]) | Percent Motility (human sperm [1]) | Velocity (Mean ± S.D.) (human sperm [1]) | Effect on capacitation and acrosome reaction of human sperm cells (human sperm [2]) | Acrosome reacted sperm (%) (Mean ± SD) (human sperm [2]; with ionophore treatment) | Acrosome reacted sperm (%) (Mean ± SD) (human sperm [2]; without ionophore treatment) | Effect on acrosin distribution vs PBS-BSA treated sperm (human sperm [3]) | Acrosin activity, cells (Mean ± SD) (human sperm [3]; with ionophore treatment) | Acrosin activity, supernatant (Mean ± SD) (human sperm [3]; with ionophore treatment) | Acrosin activity, cells (Mean ± SD) (human sperm [3]; without ionophore treatment) | Acrosin activity, supernatant (Mean ± SD) (human sperm [3]; without ionophore treatment) | Ova penetrated, % of control (mean ± SD) (human sperm [4]; [5]) | Ova penetrated, % of control (mean ± SD) (human sperm [4]; [6]) | Ova penetrated, % of control (mean ± SD) (human sperm [4]; [7]) | Ova penetrated, % of control (mean ± SD) (human sperm [4]; [8]) | also measured |
| --- | --- | --- | --- | --- | --- | --- | --- | --- | --- | --- | --- | --- | --- | --- | --- | --- | --- | --- | --- | --- |
| thymosin-α1 (SDAAVDTSSEITTKDLKEKKEVVEEAEN; not fully specified; ends and bridges not checked; UniProt P06454 2-29, looked up) [Tα1, Thymus factor peptide; available from Alpha 1 Biomedicals] | significantly affected the velocity, ALH and beat frequency | No effect | 4.0 ± 0.3 | 13.7 ± 0.6 | 3.9 ± 0.6 | 80.3 ± 6.2% | 61.1 ± 3.0 | significantly enhanced capacitation and acrosome reaction | 69.2 ± 3.6% | 18.5 ± 3.5% | significantly higher quantity of acrosin concentration released in the supernatant and a lower quantity of acrosin concentration in the sperm cells | 30.6 ± 7.2 μIU/10^6 spermatozoa | 68.2 ± 16.6 μIU/10^6 spermatozoa | 64.5 ± 6.4 μIU/10^6 spermatozoa | 27.5 ± 13.4 μIU/10^6 spermatozoa | 251.0 ± 36.3% | 204.0 ± 13.9% | 100.5 ± 0.7% | 102.2 ± 18.9% | Fold increase of percentage of ova penetrated compared to PBS-BSA-treated control sperm (human sperm [4]; 0.05 to 0.5 μg Tα1/100 μl sperm suspension, P<0.001): up to 2.6 fold; Ova penetrated, % of control (mean ± SD) (human sperm [4]; peptide 0.01 μg/100 μl sperm suspension): 120.3 ± 11.6%; Ova penetrated, % of control (mean ± SD) (human sperm [4]; peptide 0.05 μg/100 μl sperm suspension): 268.2 ± 26.4% |
| thymosin-β4 [Tβ4] | Neither Tβ4 peptide nor the control antibodies affected any motility characteristics | No effect | 3.7 ± 0.4 | 13.1 ± 0.3 | 4.0 ± 0.6 | 76.0 ± 4.3% | 58.5 ± 2.6 | did not exhibit a significant effect | 61.5 ± 4.8% | 14.5 ± 2.1% | no significant effect | 38.5 ± 7.1 μIU/10^6 spermatozoa | 52.8 ± 16.2 μIU/10^6 spermatozoa | 76.5 ± 9.1 μIU/10^6 spermatozoa | 21.0 ± 14.4 μIU/10^6 spermatozoa | 102.7 ± 6.5% | 99.7 ± 10.1% | 61.8 ± 27.9% | 31.5 ± 12.2% | – |
